Here are results for eleven compounds from ChEMBL document CHEMBL1201862, “PubChem BioAssay data set” (2004).

Molecules are shown by their SMILES.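 Cultured in 96-well plates, cells were exposed to test compound for 48 hours across five concentrations. GI50: concentration for 50% inhibition of growth.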 The source made the active and inactive calls. No stated cut-off is given here; in the data, active = GI50 up to about 1.1 µM and inactive = higher. A value given as a limit tells only on which side of the number the result lay.

Some test systems named below: COLO 205; MDA-MB-231; SNB-19; KM12; SF-539; SK-MEL-2; MOLT-4; HCT-116; OVCAR-5; NCI-H23; SK-MEL-5; NCI-H226; HOP-62; M14; LOX IMVI; MDA-N; K562; IGROV-1; UACC-257; SNB-75.
Common to all, as to assay: DTP human tumour cell line panel, 48 h

In the case of `CN(C)CCCN1c2ccccc2CCc2cc([N+](=O)[O-])ccc21`, the GI50 was 21 µM (inactive) in the assay on COLO 205; 22.2 µM (inactive) in the assay with MDA-MB-231; 28.6 µM (inactive) with SNB-19; 26.4 µM (inactive) in the assay on KM12; 24.1 µM (inactive) in the assay with SF-539; 21.1 µM (inactive) in the assay with SK-MEL-2. For the same compound, the GI50 with MOLT-4 is 26.2 µM (inactive); in the assay on HCT-116, 20.5 µM (inactive); with OVCAR-5, 25.5 µM (inactive); in the assay on NCI-H23 it was 26.5 µM (inactive); with SK-MEL-5, 15.8 µM (inactive); in the assay with NCI-H226 it was 24 µM (inactive). Moreover, the GI50 with HOP-62 was 21.8 µM (inactive); in the assay with M14, 18.9 µM (inactive); in the assay with LOX IMVI, 19.1 µM (inactive); in the assay on MDA-N, 19.6 µM (inactive); in the assay with K562, 27.2 µM (inactive); in the assay with IGROV-1, 20.3 µM (inactive). Also, in the assay on UACC-257, the GI50 is 20.1 µM (inactive).
Take `CSc1nc(=O)c2nc(-c3cccs3)c(-c3cccs3)nc2n1C`: the GI50 is > 100 µM (inactive) with COLO 205; 97.7 µM (inactive) in the assay on MDA-MB-231; 29.8 µM (inactive) in the assay with SNB-19; > 100 µM (inactive) in the assay with KM12; 49.2 µM (inactive) in the assay on SK-MEL-2; > 100 µM (inactive) in the assay on MOLT-4. The GI50 in the assay on HCT-116 is > 100 µM (inactive); in the assay with OVCAR-5, 75.3 µM (inactive); in the assay with NCI-H23, 55.8 µM (inactive); with SK-MEL-5, > 100 µM (inactive); with SNB-75 it was 18.7 µM (inactive); in the assay with HOP-62, 20 µM (inactive). Further, the GI50 was > 100 µM (inactive) with M14; 57.5 µM (inactive) in the assay on LOX IMVI; > 100 µM (inactive) with MDA-N; > 100 µM (inactive) with K562; 43.5 µM (inactive) with IGROV-1; > 100 µM (inactive) in the assay with UACC-257.
On to `C=CCSC1=N/C(=C\c2cccs2)C(=O)N1CC=C`, for which the GI50 in the assay with COLO 205 was 56.2 µM (inactive); in the assay on MDA-MB-231, 83.4 µM (inactive); in the assay with SNB-19, > 100 µM (inactive); in the assay on KM12 it was 40 µM (inactive); in the assay with SF-539 it was > 100 µM (inactive); in the assay with SK-MEL-2, > 100 µM (inactive). Moreover, the GI50 with MOLT-4 is 18.7 µM (inactive); in the assay on HCT-116, 32.7 µM (inactive); with OVCAR-5 it was > 100 µM (inactive); in the assay with NCI-H23, 94.8 µM (inactive); in the assay on SK-MEL-5, 32.3 µM (inactive); in the assay with NCI-H226 it was 44.2 µM (inactive). Besides, the GI50 was > 100 µM (inactive) in the assay with HOP-62; 54.5 µM (inactive) in the assay with M14; 46.1 µM (inactive) in the assay on LOX IMVI; 42.9 µM (inactive) in the assay with MDA-N; 29.4 µM (inactive) in the assay on K562; > 100 µM (inactive) in the assay with IGROV-1. The GI50 with UACC-257 was 49.8 µM (inactive).
In the case of `CCCC(=O)OCC1OC(n2cc(F)c(=O)[nH]c2=O)CC1OC(=O)CCC` (configuration not stated), the GI50 in the assay with COLO 205 was > 6.5 µM (inactive); with MDA-MB-231, > 10 µM (inactive); in the assay with KM12, > 5.02 µM (inactive); in the assay with SF-539, 0.00511 µM (active); in the assay with SK-MEL-2, > 10 µM (inactive); in the assay with MOLT-4, 4.63 µM (inactive). The GI50 is 0.524 µM (active) in the assay with HCT-116; > 10 µM (inactive) in the assay on OVCAR-5; 0.278 µM (active) in the assay with NCI-H23; 0.279 µM (active) in the assay with SK-MEL-5; 5.53 µM (inactive) in the assay with NCI-H226; 0.0684 µM (active) in the assay on HOP-62. Moreover, the 50% growth inhibitory concentration (GI50) in the assay on M14 is 0.312 µM (active); in the assay with LOX IMVI it was 0.0236 µM (active); in the assay on MDA-N it was 1.25 µM (inactive); in the assay with K562, 1.16 µM (inactive); with IGROV-1, > 10 µM (inactive); in the assay on UACC-257, 3.79 µM (inactive).
`CC[C@H]1C=CCC[C@@]2(C[C@@H]3CC[C@@H]4[C@H](C(=O)OCCCCCCCCCCCCCCCC(=O)N(CCCN)C[C@@H](O)CCN)[C@]5(CCC[C@@H](C)O5)NC(=[N+]34)N2)O1`: the GI50 in the assay on COLO 205 is 0.316 µM (active); in the assay on MDA-MB-231 it was 0.748 µM (active); in the assay on SNB-19 it was 0.0822 µM (active); in the assay with KM12 it was 0.447 µM (active); in the assay with SF-539 it was 0.556 µM (active); in the assay with SK-MEL-2, 0.229 µM (active). Further, the concentration for 50% growth inhibition (GI50) in the assay on MOLT-4 is 0.0869 µM (active); in the assay with HCT-116 it was 0.286 µM (active); in the assay with OVCAR-5, 0.083 µM (active); in the assay on NCI-H23 it was 0.92 µM (active); in the assay on SK-MEL-5, 0.0407 µM (active); with NCI-H226 it was 0.968 µM (active). Further, the GI50 with HOP-62 was 1.13 µM (inactive); with M14 it was 0.0249 µM (active); with LOX IMVI, 0.248 µM (active); with MDA-N it was 0.127 µM (active); in the assay on K562, 0.236 µM (active); with IGROV-1 it was 0.239 µM (active). Further, the GI50 with UACC-257 was 0.122 µM (active).
Turning to `COc1ccc2c(c1)[C@@]13CCCC[C@H]1[C@@H](C2)N(C)CC3=O`, the GI50 in the assay with COLO 205 was 17.3 µM (inactive); with MDA-MB-231, 18.5 µM (inactive); in the assay on SNB-19, 76.9 µM (inactive); with KM12, 18.1 µM (inactive); in the assay with SK-MEL-2 it was 25.2 µM (inactive); in the assay with MOLT-4, 19.7 µM (inactive). The GI50 in the assay on HCT-116 was 16.2 µM (inactive); in the assay with OVCAR-5, 17.3 µM (inactive); in the assay with NCI-H23 it was 17.5 µM (inactive); in the assay with SK-MEL-5, 22.6 µM (inactive); with NCI-H226 it was 21.3 µM (inactive); in the assay with HOP-62 it was > 100 µM (inactive). In addition, the GI50 is 16.1 µM (inactive) with M14; 16.9 µM (inactive) in the assay on LOX IMVI; 15.3 µM (inactive) in the assay on MDA-N; 28 µM (inactive) with K562; 17.4 µM (inactive) in the assay on IGROV-1; 16.5 µM (inactive) in the assay on UACC-257.
As for `COC(C)(C)/C=C/c1[nH]c2ccccc2c1CC(=O)NCCc1cn(C(c2ccccc2)(c2ccccc2)c2ccccc2)cn1`, the GI50 in the assay on COLO 205 was 2.02 µM (inactive); in the assay with MDA-MB-231, 4.72 µM (inactive); in the assay on SNB-19, 7.5 µM (inactive); with KM12, 4.22 µM (inactive); with SF-539, 4.13 µM (inactive); in the assay on SK-MEL-2, 2.64 µM (inactive). The GI50 was 2.36 µM (inactive) in the assay with MOLT-4; 4.12 µM (inactive) in the assay on HCT-116; 3.66 µM (inactive) in the assay on OVCAR-5; 4.41 µM (inactive) in the assay on NCI-H23; 2.92 µM (inactive) in the assay with SK-MEL-5; 3.65 µM (inactive) in the assay with NCI-H226. Moreover, the GI50 with HOP-62 was 5.92 µM (inactive); with M14, 4.53 µM (inactive); with LOX IMVI, 4.82 µM (inactive); with MDA-N it was 4.33 µM (inactive); with K562, 3.17 µM (inactive); in the assay with IGROV-1, 5.4 µM (inactive). Also, the GI50 in the assay on UACC-257 was 4.02 µM (inactive).
As for `Cc1ccc(NC(=O)/C(Cc2cc(=O)oc3cc(O)ccc23)=N\NC(C)(C)C)cc1C`, the GI50 in the assay with COLO 205, with MDA-MB-231, in the assay with SNB-19, in the assay with KM12, with SF-539 and in the assay with SK-MEL-2 was > 100 µM (inactive) in each case. Further, the GI50 in the assay on MOLT-4, in the assay on HCT-116, with NCI-H23, with SK-MEL-5, in the assay on NCI-H226 and in the assay with M14 was > 100 µM (inactive) each time. For the same compound, the GI50 in the assay on LOX IMVI, with MDA-N, with K562 and in the assay on UACC-257 was > 100 µM (inactive) in each case.
`CCN(CC)c1ccc(/C=c2\nc(-c3ccccc3)n3c2nc2ccccc23)cc1`: the GI50 in the assay with COLO 205 was 5.14 µM (inactive); with MDA-MB-231, 14.8 µM (inactive); with SNB-19, 83.8 µM (inactive); in the assay on KM12, 6.47 µM (inactive); in the assay with SF-539 it was 1.48 µM (inactive); in the assay with SK-MEL-2, 15.4 µM (inactive). Besides, the GI50 in the assay with MOLT-4 is 1.63 µM (inactive); in the assay on HCT-116, 3.64 µM (inactive); in the assay with OVCAR-5, 77.3 µM (inactive); in the assay with NCI-H23 it was 20 µM (inactive); in the assay with SK-MEL-5, 3.64 µM (inactive); in the assay on NCI-H226 it was 14.5 µM (inactive). The GI50 was 7.19 µM (inactive) in the assay with HOP-62; 7.46 µM (inactive) in the assay with M14; 2.04 µM (inactive) in the assay with LOX IMVI; 6.25 µM (inactive) with MDA-N; 3.77 µM (inactive) in the assay on K562; 7.82 µM (inactive) in the assay on IGROV-1. The GI50 in the assay with UACC-257 is 21.9 µM (inactive).
As to `Clc1ccc(-c2nnc(-c3c(Cl)c(Cl)c(Cl)c(Cl)c3-c3nc4ccccc4[nH]3)o2)cc1`, the GI50 with COLO 205 was 52.2 µM (inactive); in the assay on KM12 it was 97.5 µM (inactive); with SF-539, > 100 µM (inactive); in the assay with SK-MEL-2, > 100 µM (inactive); in the assay on MOLT-4 it was 27.2 µM (inactive); in the assay on HCT-116, 31.6 µM (inactive). Also, the GI50 in the assay with OVCAR-5 was > 100 µM (inactive); in the assay on NCI-H23, 45 µM (inactive); with SK-MEL-5 it was 40.4 µM (inactive); with SNB-75 it was 68.7 µM (inactive); with NCI-H226, 54.5 µM (inactive); in the assay with HOP-62 it was > 100 µM (inactive). The GI50 with M14 is 69.8 µM (inactive); in the assay with LOX IMVI it was 71.9 µM (inactive); with MDA-N it was 53.5 µM (inactive); in the assay with K562, 34.3 µM (inactive); in the assay on IGROV-1, 30.2 µM (inactive); in the assay on UACC-257, > 100 µM (inactive).
With `O=C(O)C1=CN(c2ccncc2)C(c2ccco2)=CC1c1ccccc1[N+](=O)[O-]` (configuration not stated), the GI50 with COLO 205 is 16.6 µM (inactive); in the assay with MDA-MB-231, 14.6 µM (inactive); with SNB-19 it was 12.5 µM (inactive); with KM12, 1.75 µM (inactive); in the assay with SF-539, 3.11 µM (inactive); with SK-MEL-2, 15.7 µM (inactive). For the same compound, the GI50 in the assay on MOLT-4 was 3.03 µM (inactive); in the assay with HCT-116, 1.96 µM (inactive); in the assay with OVCAR-5, 7.13 µM (inactive); in the assay on NCI-H23, 14.5 µM (inactive); in the assay with SK-MEL-5, 6.65 µM (inactive); in the assay with SNB-75 it was 7.36 µM (inactive). The GI50 in the assay with NCI-H226 is 4.72 µM (inactive); in the assay on HOP-62, 13.8 µM (inactive); in the assay on M14, 10.7 µM (inactive); with LOX IMVI it was 1.97 µM (inactive); with K562 it was 2.58 µM (inactive); in the assay on IGROV-1, 2 µM (inactive). Further, in the assay on UACC-257, the GI50 is 2.31 µM (inactive).

By GI50 is commonly meant the concentration at which growth is held to half of that of the control.
